# Measured values published in patent US20050159427A1, “N-acylsulfonamide apoptosis promoters” (priority 2003, published 2005).
# Entries after “also recorded” stand apart in the source; their conditions may differ.
# Experiments:
# Calu-6 = assay: Tumor cell viability (TABLE 1); assay type: cell-based; conditions: Homo sapiens, read-out: EC50 (50% reduction in cell viability); Calu-6 (Non-Small Cell Lung); serum-free conditions, 48 hour treatment; mean ± SEM
# HOP-62 = assay: Tumor cell viability (TABLE 1); assay type: cell-based; conditions: Homo sapiens, read-out: EC50 (50% reduction in cell viability); HOP-62 (Non-Small Cell Lung); serum-free conditions, 48 hour treatment; mean ± SEM
# COLO 205 = assay: Tumor cell viability (TABLE 1); assay type: cell-based; conditions: Homo sapiens, read-out: EC50 (50% reduction in cell viability); COLO 205 (Colorectal); serum-free conditions, 48 hour treatment; mean ± SEM
# SW-620 = assay: Tumor cell viability (TABLE 1); assay type: cell-based; conditions: Homo sapiens, read-out: EC50 (50% reduction in cell viability); SW-620 (Colorectal); serum-free conditions, 48 hour treatment; mean ± SEM
# MCF7 = assay: Tumor cell viability (TABLE 1); assay type: cell-based; conditions: Homo sapiens, read-out: EC50 (50% reduction in cell viability); MCF7 (Breast); serum-free conditions, 48 hour treatment; mean ± SEM
# HS-578T = assay: Tumor cell viability (TABLE 1); assay type: cell-based; conditions: Homo sapiens, read-out: EC50 (50% reduction in cell viability); HS-578T (Breast); serum-free conditions, 48 hour treatment; mean ± SEM
# U251 = assay: Tumor cell viability (TABLE 1); assay type: cell-based; conditions: Homo sapiens, U-251, read-out: EC50 (50% reduction in cell viability); U251 (CNS); serum-free conditions, 48 hour treatment; mean ± SEM
# SF-295 = assay: Tumor cell viability (TABLE 1); assay type: cell-based; conditions: Homo sapiens, read-out: EC50 (50% reduction in cell viability); SF-295 (CNS); serum-free conditions, 48 hour treatment; mean ± SEM
# SF-268 = assay: Tumor cell viability (TABLE 1); assay type: cell-based; conditions: Homo sapiens, read-out: EC50 (50% reduction in cell viability); SF-268 (CNS); serum-free conditions, 48 hour treatment; mean ± SEM
# U87MG = assay: Tumor cell viability (TABLE 1); assay type: cell-based; conditions: Homo sapiens, U-87 MG, read-out: EC50 (50% reduction in cell viability); U87MG (Glioma); serum-free conditions, 48 hour treatment; mean ± SEM
# D54MG = assay: Tumor cell viability (TABLE 1); assay type: cell-based; conditions: Homo sapiens, read-out: EC50 (50% reduction in cell viability); D54MG (Glioma); serum-free conditions, 48 hour treatment; mean ± SEM
# SK-MEL-28 = assay: Tumor cell viability (TABLE 1); assay type: cell-based; conditions: Homo sapiens, read-out: EC50 (50% reduction in cell viability); SK-MEL-28 (Melanoma); serum-free conditions, 48 hour treatment; mean ± SEM
# OVCAR-3 = assay: Tumor cell viability (TABLE 1); assay type: cell-based; conditions: Homo sapiens, read-out: EC50 (50% reduction in cell viability); OVCAR-3 (Ovarian); serum-free conditions, 48 hour treatment; mean ± SEM
# SK-OV-3 = assay: Tumor cell viability (TABLE 1); assay type: cell-based; conditions: Homo sapiens, read-out: EC50 (50% reduction in cell viability); SK-OV-3 (Ovarian); serum-free conditions, 48 hour treatment; mean ± SEM
# OVCAR-4 = assay: Tumor cell viability (TABLE 1); assay type: cell-based; conditions: Homo sapiens, read-out: EC50 (50% reduction in cell viability); OVCAR-4 (Ovarian); serum-free conditions, 48 hour treatment; mean ± SEM
# MiaPaCa = assay: Tumor cell viability (TABLE 1); assay type: cell-based; conditions: Homo sapiens, MIA PaCa-2, read-out: EC50 (50% reduction in cell viability); MiaPaCa (Pancreas); serum-free conditions, 48 hour treatment; mean ± SEM
# SN12C = assay: Tumor cell viability (TABLE 1); assay type: cell-based; conditions: Homo sapiens, read-out: EC50 (50% reduction in cell viability); SN12C (Renal); serum-free conditions, 48 hour treatment; mean ± SEM
# SCLC xenograft = assay: Small cell lung cancer xenograft tumor model; assay type: in vivo, murine
# From the text: (H146 and SCLC xenograft) from human-derived small cell lung cancer isolated from smokers and nonsmokers, defective for Rb/p53 gene function, and expresseive of moderately high levels of Bcl-2.
# CCRF-CEM = CCRF-CEM systemic model of acute lymphoblastoid leukemia; assay type: in vivo, mouse
# From the text: CCRF-CEM is a p53-mutant acute lympoblastoid leukemia line of T-cell origin used as an animal (mouse) model of systemic leukemia involving intravenous inoculation of tumor cells. If left untreated, the mice succumb to disease within about 34 days post inoculation, at which time extensive tumor infiltration of spleen, liver, and bone marrow has occured.
# [1] = test system: DoHH2 follicular lymphoma flank tumors; assay: DoHH2 follicular lymphoma model; assay type: in vivo
# [2] = test system: A549 human non-small cell lung carcinoma cells; assay: Paclitaxel combination on A549 cells; assay type: cell-based; conditions: A549 cells
# [3] = Combination therapy studies with cytotoxic agents; conditions: with etoposide, vincristine, modified CHOP, doxorubicin, rapamycin and Rituxin®
# [4] = test system: human tumor cell lines derived from small cell lung carcinomas and lymphoid malignancies of both T-cell and B-cell origin; conditions: small cell lung carcinoma and T-cell / B-cell lymphoid malignancy cell lines
# [5] = test system: acute lymphoblastoid leukemia, small cell lung cancer, prostate cancer, non-small cell lung cancer, and follicular lymphoma tumors (RS11380, DoHH2 and SuDHL-4); conditions: follicular lymphoma (RS11380, DoHH2, SuDHL-4)
# [6] = established flank tumors, sustained period of time
smiles,measurement,setting,value
"CN(C)CC[C@H](CSc1ccccc1)Nc1ccc(S(=O)(=O)NC(=O)c2ccc(N3CCN(Cc4ccccc4-c4ccc(Cl)cc4)CC3)cc2)cc1[N+](=O)[O-] [EXAMPLE 2, N-(4-(4-((4′-chloro(1,1′-biphenyl)-2-yl)methyl)piperazin-1-yl)benzoyl)-4-(((1R)-3-(dimethylamino)-1-((phenylsulfanyl)methyl)propyl)amino)-3-nitrobenzenesulfonamide]",EC50,Calu-6,0.18 ± 0.07 µM
same,EC50,HOP-62,6.3 ± 6.7 µM
same,EC50,COLO 205,0.51 ± 0.07 µM
same,EC50,SW-620,0.69 ± 0.07 µM
same,EC50,MCF7,2 ± 0.8 µM
same,EC50,HS-578T,7.2 ± 8.2 µM
same,EC50,U251,3.8 ± 2 µM
same,EC50,SF-295,7.7 ± 2.3 µM
same,EC50,SF-268,8.3 ± 0.4 µM
same,EC50,U87MG,2.7 ± 1.8 µM
same,EC50,D54MG,3.1 ± 2.5 µM
same,EC50,SK-MEL-28,9.3 ± 0.1 µM
same,EC50,OVCAR-3,1.9 ± 0.3 µM
same,EC50,SK-OV-3,5.6 ± 1 µM
same,EC50,OVCAR-4,22 ± 3 µM
same,EC50,MiaPaCa,1.4 ± 0.6 µM
same,EC50,SN12C,3.2 ± 0.2 µM
same,anti-tumor activity,SCLC xenograft; SCLC xenograft murine model,demonstrated anti-tumor activity
same,anti-tumor activity compared with paclitaxel,SCLC xenograft; paclitaxel near the maximum tolerated dose,equivalent to slightly better than paclitaxel
same,anti-tumor activity compared with cisplatin and etoposide,SCLC xenograft; small cell lung cancer xenograft tumor model,superior to cisplatin and etoposide
same,activity in leukemia model,CCRF-CEM; CCRF-CEM T-cell acute lymphoblastoid leukemia model,significant activity
same,survival,"CCRF-CEM; mice, intravenous inoculation of tumor cells",prolonged survival; also recorded: increased the average survival
same,tumor infiltration in liver and spleen (histopathology),CCRF-CEM; relative to controls,lower tumor infiltration
same,average spleen weight,CCRF-CEM; relative to vehicle controls,significant decrease in average spleen weight
same,"tumor regression, combination with Rituxin®",[1]; [6],complete regression of a significant percentage of established DoHH2 follicular lymphoma flank tumors
same,"tumor regression, combination with rapamycin",[1]; [6],complete regression of a significant percentage of established DoHH2 follicular lymphoma flank tumors
same,tumor growth,[1]; model of follicular lymphoma (DOHH-2),inhibited tumor growth
same,increase in efficacy of paclitaxel when administered with the compound,[2],about 4.4 fold
same,effect on efficacy of cytotoxic agents during combination therapy,[3],synergistically enhanced efficacy
same,therapeutic utility against human tumor cell lines,[4],displayed therapeutic utility
same,therapeutic utility in xenograft models,[5],displayed therapeutic utility
